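Five concentrations, 48 hours, 96-well plates. Abbreviation: GI50, concentration required for 50% inhibition of growth.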 Activity calls are given as the source filed them. Cut-off read from the data, not from the text of the source: active = GI50 up to about 1.1 µM and inactive = higher.
Assays:
Test in all cases: NCI-60 cell line screen, 48 h
DU-145 = tested on: DU-145
786-0 = tested on: 786-0
SK-MEL-2 = tested on: SK-MEL-2
HL-60 = tested on: HL-60
SF-268 = tested on: SF-268
SNB-75 = tested on: SNB-75
T47D = tested on: T47D
M14 = tested on: M14
HT-29 = tested on: HT-29
MDA-N = tested on: MDA-N
SF-295 = tested on: SF-295
SK-MEL-5 = tested on: SK-MEL-5
CAKI-1 = tested on: CAKI-1
A549 = tested on: A549
SNB-19 = tested on: SNB-19
SF-539 = tested on: SF-539
TK-10 = tested on: TK-10
UACC-257 = tested on: UACC-257
MDA-MB-231 = tested on: MDA-MB-231

Measured: GI50

CCC(=O)Nc1ccc(/N=C/c2cccc(Oc3ccccc3)c2)cc1
inactive: DU-145 46.2 µM | 786-0 42.4 µM | SK-MEL-2 > 100 µM | HL-60 26.7 µM | SF-268 42.1 µM | SNB-75 > 100 µM | T47D 91 µM | M14 46.6 µM | HT-29 49.2 µM | MDA-N 40.1 µM | SF-295 > 100 µM | SK-MEL-5 33 µM | CAKI-1 > 100 µM | A549 > 100 µM | SNB-19 > 100 µM | SF-539 16.4 µM

CCOC(=O)c1ccc(N2C(=O)/C(=C\OC)c3ccccc3C2=O)cc1
inactive: 786-0 27.2 µM | SK-MEL-2 23 µM | SF-268 27.7 µM | SNB-75 25.5 µM | TK-10 15.1 µM | HT-29 44.3 µM | SF-295 33.4 µM | SK-MEL-5 70.8 µM | CAKI-1 33.4 µM | UACC-257 38.5 µM | A549 43.3 µM | SNB-19 34 µM | SF-539 32.4 µM

Cc1ccccc1/N=N/c1ccc(/N=N/c2c(O)ccc3ccccc23)c(C)c1 [SCARLET RED]
inactive: DU-145 > 100 µM | 786-0 > 100 µM | SK-MEL-2 > 100 µM | SF-268 70.3 µM | SNB-75 72.1 µM | T47D > 100 µM | TK-10 > 100 µM | M14 > 100 µM | HT-29 > 100 µM | SF-295 56.8 µM | SK-MEL-5 > 100 µM | CAKI-1 > 100 µM | MDA-MB-231 > 100 µM | UACC-257 > 100 µM | A549 > 100 µM | SNB-19 81.7 µM

O=C1NC2=NN=C(c3ccc(Br)cc3)CN2NC12c1ccccc1-c1ccccc12
inactive: DU-145 > 100 µM | 786-0 > 100 µM | SK-MEL-2 > 100 µM | SF-268 > 100 µM | SNB-75 > 100 µM | TK-10 > 100 µM | M14 > 100 µM | HT-29 > 100 µM | MDA-N > 100 µM | SF-295 > 100 µM | SK-MEL-5 > 100 µM | CAKI-1 > 100 µM | MDA-MB-231 > 100 µM | UACC-257 > 100 µM | A549 > 100 µM | SNB-19 > 100 µM | SF-539 > 100 µM

CCCCn1c(C)c(C(=O)OCC)c2cc(OCc3ccc(C(=O)Nn4c(C)ccc4C)cc3)c(Br)cc21
inactive: DU-145 > 100 µM | 786-0 > 100 µM | SK-MEL-2 > 100 µM | HL-60 > 100 µM | SF-268 > 100 µM | SNB-75 > 100 µM | T47D > 100 µM | TK-10 > 100 µM | M14 > 100 µM | HT-29 > 100 µM | MDA-N > 100 µM | SF-295 > 100 µM | SK-MEL-5 > 100 µM | CAKI-1 > 100 µM | UACC-257 > 100 µM | A549 > 100 µM | SNB-19 > 100 µM | SF-539 > 100 µM

O=S1(=O)c2ccccc2Oc2ccc(C(/C=N/O)=N/O)cc21
active: TK-10 0.155 µM
inactive: DU-145 11.2 µM | 786-0 46.1 µM | SK-MEL-2 25.7 µM | HL-60 17.3 µM | SF-268 30.1 µM | SNB-75 45.3 µM | T47D 9.08 µM | M14 37.3 µM | HT-29 63.8 µM | SF-295 18.2 µM | CAKI-1 16.5 µM | MDA-MB-231 45.5 µM | A549 65.5 µM | SF-539 26 µM

COc1ccc(N2C(=O)CC(Cl)C2=O)cc1 (stereo unspecified)
inactive: DU-145 94.6 µM | 786-0 17.7 µM | SK-MEL-2 > 100 µM | SF-268 > 100 µM | SNB-75 > 100 µM | T47D 18.9 µM | TK-10 18.8 µM | M14 > 100 µM | HT-29 17.8 µM | SK-MEL-5 > 100 µM | MDA-MB-231 17.4 µM | UACC-257 16.1 µM | A549 > 100 µM | SNB-19 > 100 µM | SF-539 18.2 µM

COc1cc2c(/C=C3/C(=O)Nc4cccc(Cl)c43)c(Cl)[nH]c2cc1C
active: TK-10 1.06 µM | MDA-MB-231 1.08 µM
inactive: DU-145 1.88 µM | 786-0 1.85 µM | SK-MEL-2 3.05 µM | HL-60 1.82 µM | SF-268 3.8 µM | SNB-75 1.44 µM | T47D 1.43 µM | M14 2.23 µM | HT-29 1.94 µM | SF-295 1.69 µM | SK-MEL-5 3.5 µM | CAKI-1 1.86 µM | UACC-257 2.26 µM | A549 2.09 µM | SNB-19 2.14 µM | SF-539 1.6 µM

CCN(CC)C(=O)CCCCCCCCC1CO1 (stereo unspecified)
inactive: DU-145 > 100 µM | 786-0 > 100 µM | SK-MEL-2 > 100 µM | HL-60 21.1 µM | SF-268 > 100 µM | SNB-75 > 100 µM | TK-10 > 100 µM | M14 > 100 µM | HT-29 > 100 µM | MDA-N > 100 µM | SF-295 > 100 µM | SK-MEL-5 > 100 µM | CAKI-1 > 100 µM | MDA-MB-231 > 100 µM | UACC-257 > 100 µM | A549 > 100 µM | SNB-19 > 100 µM | SF-539 > 100 µM

O[C@]12c3ccccc3C1CCCCC2N1CCOCC1 (stereo partly specified)
inactive: 786-0 > 100 µM | SK-MEL-2 > 100 µM | HL-60 > 100 µM | SF-268 > 100 µM | SNB-75 > 100 µM | TK-10 > 100 µM | M14 > 100 µM | HT-29 > 100 µM | SF-295 > 100 µM | SK-MEL-5 > 100 µM | UACC-257 > 100 µM | A549 > 100 µM | SNB-19 > 100 µM

COc1cc2c(cc1OC)[C@@H]1[C@H](C#N)C(=O)C(C)(C)N1CC2
inactive: DU-145 > 100 µM | 786-0 > 100 µM | HL-60 23.6 µM | TK-10 > 100 µM | M14 > 100 µM | HT-29 > 100 µM | MDA-N > 100 µM | SF-295 > 100 µM | SK-MEL-5 > 100 µM | CAKI-1 > 100 µM | MDA-MB-231 28.6 µM | UACC-257 > 100 µM | A549 > 100 µM | SNB-19 > 100 µM

CCOP(=O)(Nc1ccc(-c2ccc(N)cc2)cc1)OCC
inactive: DU-145 > 100 µM | 786-0 > 100 µM | SK-MEL-2 > 100 µM | SF-268 > 100 µM | SNB-75 > 100 µM | TK-10 > 100 µM | M14 > 100 µM | HT-29 > 100 µM | MDA-N > 100 µM | SF-295 84.5 µM | SK-MEL-5 > 100 µM | CAKI-1 > 100 µM | MDA-MB-231 > 100 µM | UACC-257 > 100 µM | A549 > 100 µM | SNB-19 94.8 µM

COc1ccc2c(n1)Sc1nc3ccccc3nc1N2
inactive: DU-145 > 100 µM | 786-0 26.8 µM | SK-MEL-2 > 100 µM | SF-268 58.5 µM | SNB-75 25.5 µM | T47D > 100 µM | TK-10 15.6 µM | M14 > 100 µM | HT-29 85.7 µM | SF-295 26.7 µM | SK-MEL-5 > 100 µM | CAKI-1 88.3 µM | MDA-MB-231 13.2 µM | UACC-257 > 100 µM | A549 > 100 µM | SNB-19 30.3 µM | SF-539 14.4 µM

From ChEMBL document CHEMBL1201862, “PubChem BioAssay data set” (2004)
